Data reported in patent US6355799B1, “Substituted benzene compounds, process for their preparation, and herbicidal and defoliant compositions containing them” (ISK Americas Incorporated, priority 1997, dated 2002).

Experiments:
Type in all cases: in vivo
[1] = test system: johnsongrass (Sorghum halepense, SORHA); assay: Pre-emerge test, greenhouse herbicide activity screening; conditions: rating scale 0-100, 14 days after application
Procedure, shortened: (§1)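 Rating: 0–100 visual injury, 14 DAA. Application: acetone, 187 l/ha, 15–1000 g ai/ha, flat-fan track sprayer with nozzle 40–45 cm above soil or canopy. Post-emerge runs used 0.25% v/v surfactant on 2–3 leaf plants.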

[2] = test system: velvetleaf (Abutilon theophrasti, ABUTH); assay: as above; conditions: rating scale 0-100, 14 days after application
Procedure, shortened: as §1

[3] = test system: common ragweed (Ambrosia artemisizfolia L., AMBEL); assay: as above; conditions: rating scale 0-100, 14 days after application
Procedure, shortened: as §1

[4] = test system: lambsquarters (Chenopodium album, CHEAL); assay: as above; conditions: rating scale 0-100, 14 days after application
Procedure, shortened: as §1

[5] = test system: sicklepod (Cassia obtusifolia, CASOB); assay: as above; conditions: rating scale 0-100, 14 days after application
Procedure, shortened: as §1

[6] = test system: green foxtail (Setaria viridis, SETVI); assay: as above; conditions: rating scale 0-100, 14 days after application
Procedure, shortened: as §1

[7] = test system: ivyleaf morningglory (Ipomoea hederacea, IPOHE); assay: as above; conditions: rating scale 0-100, 14 days after application
Procedure, shortened: as §1

[8] = test system: barnyardgrass (Echinochloa crus-galli, ECHCG); assay: as above; conditions: rating scale 0-100, 14 days after application
Procedure, shortened: as §1

[9] = test system: large crabgrass (Digitaria sanguinalis, DIGSA); assay: as above; conditions: rating scale 0-100, 14 days after application
Procedure, shortened: as §1

[10] = test system: upland rice (Oryza sp., var. Tebonnet, RICE); assay: Post-emerge test, crop safety; conditions: rating scale 0-100 (0 no damage, 100 complete death), 14 days after application
Procedure, shortened: (§2)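 Plants grown in 10 cm pots of sandy loam mix received acetone-dissolved compounds through a moving flat-fan nozzle. Doses ranged from 15 to 1000 g ai/ha. Pre-emerge pots were seeded one day earlier, post-emerge pots 8–21 days earlier. Fourteen days on, each pot was graded 0–100 for damage.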

[11] = test system: field corn (Zea mays L., var. Dekalb 535, CORN); assay: Post-emerge test, crop safety; conditions: rating scale 0-100 (0 no damage, 100 complete death), 14 days after application
Procedure, shortened: as §2

[12] = test system: redroot pigweed (Amaranthus retroflexus, AMARE); assay: Post-emerge test, greenhouse herbicide activity screening; conditions: rating scale 0-100 (0 no damage, 100 complete death), 14 days after application
Procedure, shortened: (§3)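 Herbicidal damage is scored 0 (none) to 100 (complete plant death) two weeks after a simulated field spray. Rates span 15–1000 g ai/ha, delivered in acetone at 187 l/ha. For post-emergence treatments, plants have 2–3 leaves and the spray carries 0.25% v/v non-ionic surfactant.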

[13] = test system: johnsongrass (Sorghum halepense, SORHA); assay: as above; conditions: rating scale 0-100 (0 no damage, 100 complete death), 14 days after application
Procedure, shortened: as §3

[14] = test system: velvetleaf (Abutilon theophrasti, ABUTH); assay: as above; conditions: rating scale 0-100 (0 no damage, 100 complete death), 14 days after application
Procedure, shortened: as §3

[15] = test system: lambsquarters (Chenopodium album, CHEAL); assay: as above; conditions: rating scale 0-100 (0 no damage, 100 complete death), 14 days after application
Procedure, shortened: as §3

[16] = test system: sicklepod (Cassia obtusifolia, CASOB); assay: as above; conditions: rating scale 0-100 (0 no damage, 100 complete death), 14 days after application
Procedure, shortened: as §3

[17] = test system: green foxtail (Setaria viridis, SETVI); assay: as above; conditions: rating scale 0-100 (0 no damage, 100 complete death), 14 days after application
Procedure, shortened: as §3

[18] = test system: ivyleaf morningglory (Ipomoea hederacea, IPOHE); assay: as above; conditions: rating scale 0-100 (0 no damage, 100 complete death), 14 days after application
Procedure, shortened: as §3

[19] = test system: barnyardgrass (Echinochloa crus-galli, ECHCG); assay: as above; conditions: rating scale 0-100 (0 no damage, 100 complete death), 14 days after application
Procedure, shortened: as §3

[20] = test system: large crabgrass (Digitaria sanguinalis, DIGSA); assay: as above; conditions: rating scale 0-100 (0 no damage, 100 complete death), 14 days after application
Procedure, shortened: as §3

[21] = test system: upland rice (Oryza sp., var. Tebonnet, RICE); assay: Pre-emerge test, crop safety; conditions: rating scale 0-100, 14 days after application
Procedure, shortened: as §2

[22] = test system: field corn (Zea mays L., var. Dekalb 535, CORN); assay: Pre-emerge test, crop safety; conditions: rating scale 0-100, 14 days after application
Procedure, shortened: as §2

[23] = test system: redroot pigweed (Amaranthus retroflexus, AMARE); assay: Pre-emerge test, greenhouse herbicide activity screening; conditions: rating scale 0-100, 14 days after application
Procedure, shortened: as §2

## COC(=O)C(Cl)Cc1c(OC)c(Cl)cc(F)c1-n1c(=O)cc(C(F)(F)F)n(C)c1=O (centres unmarked) [14-3]
[1]; 63 g ai/ha
  Pre-emerge herbicidal activity, phytotoxicity rating SORHA: 0
[1]; 250 g ai/ha
  Pre-emerge herbicidal activity, phytotoxicity rating SORHA: 60
[2]; 63 g ai/ha
  Pre-emerge herbicidal activity, phytotoxicity rating ABUTH: 100
[2]; 250 g ai/ha
  Pre-emerge herbicidal activity, phytotoxicity rating ABUTH: 100
[3]; 63 g ai/ha
  Pre-emerge herbicidal activity, phytotoxicity rating AMBEL: 0
[3]; 250 g ai/ha
  Pre-emerge herbicidal activity, phytotoxicity rating AMBEL: 65
[4]; 63 g ai/ha
  Pre-emerge herbicidal activity, phytotoxicity rating CHEAL: 100
[4]; 250 g ai/ha
  Pre-emerge herbicidal activity, phytotoxicity rating CHEAL: 100
[5]; 63 g ai/ha
  Pre-emerge herbicidal activity, phytotoxicity rating CASOB: 20
[5]; 250 g ai/ha
  Pre-emerge herbicidal activity, phytotoxicity rating CASOB: 80
[6]; 63 g ai/ha
  Pre-emerge herbicidal activity, phytotoxicity rating SETVI: 40
[6]; 250 g ai/ha
  Pre-emerge herbicidal activity, phytotoxicity rating SETVI: 80
[7]; 63 g ai/ha
  Pre-emerge herbicidal activity, phytotoxicity rating IPOHE: 0
[7]; 250 g ai/ha
  Pre-emerge herbicidal activity, phytotoxicity rating IPOHE: 50
[8]; 63 g ai/ha
  Pre-emerge herbicidal activity, phytotoxicity rating ECHCG: 0
[8]; 250 g ai/ha
  Pre-emerge herbicidal activity, phytotoxicity rating ECHCG: 40
[9]; 63 g ai/ha
  Pre-emerge herbicidal activity, phytotoxicity rating DIGSA: 30
[9]; 250 g ai/ha
  Pre-emerge herbicidal activity, phytotoxicity rating DIGSA: 90
[10]; Rate 63 g ai/ha
  Post-emerge phytotoxicity rating RICE (crop damage): 5
[10]; Rate 250 g ai/ha
  Post-emerge phytotoxicity rating RICE (crop damage): 80
[11]; Rate 63 g ai/ha
  Post-emerge phytotoxicity rating CORN (crop damage): 100
[11]; Rate 250 g ai/ha
  Post-emerge phytotoxicity rating CORN (crop damage): 100
[12]; Rate 63 g ai/ha
  Post-emerge Herbicidal Activity, phytotoxicity rating AMARE: 95
[12]; Rate 250 g ai/ha
  Post-emerge Herbicidal Activity, phytotoxicity rating AMARE: 100
[13]; Rate 63 g ai/ha
  Post-emerge Herbicidal Activity, phytotoxicity rating SORHA: 80
[13]; Rate 250 g ai/ha
  Post-emerge Herbicidal Activity, phytotoxicity rating SORHA: 70
[14]; Rate 63 g ai/ha
  Post-emerge Herbicidal Activity, phytotoxicity rating ABUTH: 100
[14]; Rate 250 g ai/ha
  Post-emerge Herbicidal Activity, phytotoxicity rating ABUTH: 100
[15]; Rate 63 g ai/ha
  Post-emerge Herbicidal Activity, phytotoxicity rating CHEAL: 90
[15]; Rate 250 g ai/ha
  Post-emerge Herbicidal Activity, phytotoxicity rating CHEAL: 100
[16]; Rate 63 g ai/ha
  Post-emerge Herbicidal Activity, phytotoxicity rating CASOB: 10
[16]; Rate 250 g ai/ha
  Post-emerge Herbicidal Activity, phytotoxicity rating CASOB: 75
[17]; Rate 63 g ai/ha
  Post-emerge Herbicidal Activity, phytotoxicity rating SETVI: 30
[17]; Rate 250 g ai/ha
  Post-emerge Herbicidal Activity, phytotoxicity rating SETVI: 70
[18]; Rate 63 g ai/ha
  Post-emerge Herbicidal Activity, phytotoxicity rating IPOHE: 50
[18]; Rate 250 g ai/ha
  Post-emerge Herbicidal Activity, phytotoxicity rating IPOHE: 100
[19]; Rate 63 g ai/ha
  Post-emerge Herbicidal Activity, phytotoxicity rating ECHCG: 99
[19]; Rate 250 g ai/ha
  Post-emerge Herbicidal Activity, phytotoxicity rating ECHCG: 100
[20]; Rate 63 g ai/ha
  Post-emerge Herbicidal Activity, phytotoxicity rating DIGSA: 99
[20]; Rate 250 g ai/ha
  Post-emerge Herbicidal Activity, phytotoxicity rating DIGSA: 100
[21]; 63 g ai/ha
  Pre-emerge phytotoxicity rating, crop damage RICE: 0
[21]; 250 g ai/ha
  Pre-emerge phytotoxicity rating, crop damage RICE: 50
[22]; 63 g ai/ha
  Pre-emerge phytotoxicity rating, crop damage CORN: 0
[22]; 250 g ai/ha
  Pre-emerge phytotoxicity rating, crop damage CORN: 90
[23]; 63 g ai/ha
  Pre-emerge herbicidal activity, phytotoxicity rating AMARE: 100
[23]; 250 g ai/ha
  Pre-emerge herbicidal activity, phytotoxicity rating AMARE: 100

## CCCCCOC(=O)C(Cl)Cc1c(OC)c(Cl)cc(F)c1-n1c(=O)cc(C(F)(F)F)n(C)c1=O (single isomer, unassigned) [14-10]
[1]; 63 g ai/ha
  Pre-emerge herbicidal activity, phytotoxicity rating SORHA: 0
[1]; 250 g ai/ha
  Pre-emerge herbicidal activity, phytotoxicity rating SORHA: 30
[2]; 63 g ai/ha
  Pre-emerge herbicidal activity, phytotoxicity rating ABUTH: 0
[2]; 250 g ai/ha
  Pre-emerge herbicidal activity, phytotoxicity rating ABUTH: 90
[3]; 63 g ai/ha
  Pre-emerge herbicidal activity, phytotoxicity rating AMBEL: 50
[3]; 250 g ai/ha
  Pre-emerge herbicidal activity, phytotoxicity rating AMBEL: 100
[4]; 63 g ai/ha
  Pre-emerge herbicidal activity, phytotoxicity rating CHEAL: 0
[4]; 250 g ai/ha
  Pre-emerge herbicidal activity, phytotoxicity rating CHEAL: 100
[5]; 63 g ai/ha
  Pre-emerge herbicidal activity, phytotoxicity rating CASOB: 0
[5]; 250 g ai/ha
  Pre-emerge herbicidal activity, phytotoxicity rating CASOB: 0
[6]; 63 g ai/ha
  Pre-emerge herbicidal activity, phytotoxicity rating SETVI: 0
[6]; 250 g ai/ha
  Pre-emerge herbicidal activity, phytotoxicity rating SETVI: 0
[7]; 63 g ai/ha
  Pre-emerge herbicidal activity, phytotoxicity rating IPOHE: 0
[7]; 250 g ai/ha
  Pre-emerge herbicidal activity, phytotoxicity rating IPOHE: 70
[8]; 63 g ai/ha
  Pre-emerge herbicidal activity, phytotoxicity rating ECHCG: 0
[8]; 250 g ai/ha
  Pre-emerge herbicidal activity, phytotoxicity rating ECHCG: 0
[9]; 63 g ai/ha
  Pre-emerge herbicidal activity, phytotoxicity rating DIGSA: 0
[9]; 250 g ai/ha
  Pre-emerge herbicidal activity, phytotoxicity rating DIGSA: 90
[10]; Rate 63 g ai/ha
  Post-emerge phytotoxicity rating RICE (crop damage): 0
[10]; Rate 250 g ai/ha
  Post-emerge phytotoxicity rating RICE (crop damage): 20
[11]; Rate 63 g ai/ha
  Post-emerge phytotoxicity rating CORN (crop damage): 20
[11]; Rate 250 g ai/ha
  Post-emerge phytotoxicity rating CORN (crop damage): 60
[12]; Rate 63 g ai/ha
  Post-emerge Herbicidal Activity, phytotoxicity rating AMARE: 90
[12]; Rate 250 g ai/ha
  Post-emerge Herbicidal Activity, phytotoxicity rating AMARE: 100
[13]; Rate 63 g ai/ha
  Post-emerge Herbicidal Activity, phytotoxicity rating SORHA: 20
[13]; Rate 250 g ai/ha
  Post-emerge Herbicidal Activity, phytotoxicity rating SORHA: 50
[14]; Rate 63 g ai/ha
  Post-emerge Herbicidal Activity, phytotoxicity rating ABUTH: 80
[14]; Rate 250 g ai/ha
  Post-emerge Herbicidal Activity, phytotoxicity rating ABUTH: 100
[15]; Rate 63 g ai/ha
  Post-emerge Herbicidal Activity, phytotoxicity rating CHEAL: 90
[15]; Rate 250 g ai/ha
  Post-emerge Herbicidal Activity, phytotoxicity rating CHEAL: 100
[16]; Rate 63 g ai/ha
  Post-emerge Herbicidal Activity, phytotoxicity rating CASOB: 80
[16]; Rate 250 g ai/ha
  Post-emerge Herbicidal Activity, phytotoxicity rating CASOB: 90
[17]; Rate 63 g ai/ha
  Post-emerge Herbicidal Activity, phytotoxicity rating SETVI: 50
[17]; Rate 250 g ai/ha
  Post-emerge Herbicidal Activity, phytotoxicity rating SETVI: 90
[18]; Rate 63 g ai/ha
  Post-emerge Herbicidal Activity, phytotoxicity rating IPOHE: 70
[18]; Rate 250 g ai/ha
  Post-emerge Herbicidal Activity, phytotoxicity rating IPOHE: 80
[19]; Rate 63 g ai/ha
  Post-emerge Herbicidal Activity, phytotoxicity rating ECHCG: 95
[19]; Rate 250 g ai/ha
  Post-emerge Herbicidal Activity, phytotoxicity rating ECHCG: 100
[20]; Rate 63 g ai/ha
  Post-emerge Herbicidal Activity, phytotoxicity rating DIGSA: 10
[20]; Rate 250 g ai/ha
  Post-emerge Herbicidal Activity, phytotoxicity rating DIGSA: 100
[21]; 63 g ai/ha
  Pre-emerge phytotoxicity rating, crop damage RICE: 20
[21]; 250 g ai/ha
  Pre-emerge phytotoxicity rating, crop damage RICE: 30
[22]; 63 g ai/ha
  Pre-emerge phytotoxicity rating, crop damage CORN: 0
[22]; 250 g ai/ha
  Pre-emerge phytotoxicity rating, crop damage CORN: 40
[23]; 63 g ai/ha
  Pre-emerge herbicidal activity, phytotoxicity rating AMARE: 100
[23]; 250 g ai/ha
  Pre-emerge herbicidal activity, phytotoxicity rating AMARE: 100
